Data as given in ChEMBL document CHEMBL1148453, “Parallel solution-phase synthesis of conformationally restricted congeners of pentamidine and evaluation of their antiplasmodial activities” (J Med Chem, 2004).

What was measured:
[1] = system: Calf thymus DNA; test: Binding affinity for calf thymus DNA by measuring the change in midpoint of the thermal denaturation curves; type: nucleic-acid assay; conditions: Bos taurus
[2] = system: Nucleic Acid; test: Binding affinity for poly dA-dT DNA by measuring the change in midpoint of the thermal denaturation curves; type: nucleic-acid assay
[3] = system: Plasmodium falciparum; test: microbe, parasite or virus in culture
Description: In vitro antiparasitic activity against chloroquine-resistant Plasmodium falciparum Indochina I

[4] = system: Plasmodium falciparum; test: microbe, parasite or virus in culture; remark: listed apart in the source
Description: In vitro antiparasitic activity against chloroquine-sensitive Plasmodium falciparum Haiti 135

[5] = system: A549; test: Cytotoxicity against human lung cell carcinoma A549 cell line; type: functional, cell-based

SMILES	ΔTm [1] [°C]	ΔTm [2] [°C]	IC50 [3] [nM]	IC50 [4] [nM]	IC50 [5] [nM]
c1ccc(N2CCN(c3ccccc3)C2c2ccc(N3CCN(c4ccc(C5N(c6ccccc6)CCN5c5ccccc5)cc4)CC3)cc2)cc1	-1.2	0	> 500	> 500	
NNC(=O)c1ccc(N2CCN(c3ccc(C(=O)NN)cc3)CC2)cc1	0.1	0	> 500	> 500	
CCN(CC)CCCC(C)Nc1ccnc2cc(Cl)ccc12 (stereo unspecified) [CHLOROQUINE]					40000
N=C(N)c1ccc(OCCCCCOc2ccc(C(=N)N)cc2)cc1 [PENTAMIDINE]	11.1	20.6	45	15	40000
N=C(N)c1ccc(N2CCCN(c3ccc(C(=N)N)cc3)CC2)cc1	15	23.1	100	150	> 204000
CN1CCN(C)C1c1ccc(N2CCN(c3ccc(C4N(C)CCN4C)cc3)CC2)cc1	2.4	1.8	> 500	> 500	
CCOC(=O)c1ccc(N2CCN(c3ccc(C(=O)OCC)cc3)CC2)cc1	0.6	0	> 500	> 500	
c1cc(N2CCN(c3ccc(C4OCCO4)cc3)CC2)ccc1C1OCCO1	-1.2	0.1	> 500	> 500	
